Patent publication US11981658B2, “Substituted aminopyridine compounds as EGFR inhibitors” (YUHAN CORPORATION, priority 2021, dated 2024)
Where two headings read alike, the source gives them in different places.

What was measured:
[1] = molecular target: EGFR Del19/C797S (Homo sapiens, UniProt P00533, C797S/DEL746-750); assay: Biochemical EGFR kinase inhibition assay (Lance Ultra TR-FRET), double mutant del19/C797S
Summary of the method: (§1)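 Enzyme reactions lasted 1 hour at room temperature with test compounds between 0.003 and 10 μM, followed by 10 mM EDTA quench.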

[2] = molecular target: EGFR Del19/T790M/C797S (Homo sapiens, UniProt P00533, C797S/DEL746-750/T790M); assay: Biochemical EGFR kinase inhibition assay (Lance Ultra TR-FRET), triple mutant del19/T790M/C797S
Summary of the method: as §1

[3] = molecular target: EGFR L858R/C797S (Homo sapiens, UniProt P00533, C797S/L858R); assay: Biochemical EGFR kinase inhibition assay (Lance Ultra TR-FRET), double mutant L858R/C797S
Summary of the method: as §1

[4] = molecular target: EGFR L858R/T790M/C797S (Homo sapiens, UniProt P00533, C797S/L858R/T790M); assay: Biochemical EGFR kinase inhibition assay (Lance Ultra TR-FRET), triple mutant L858R/T790M/C797S
Summary of the method: as §1

[5] = molecular target: EGFR wildtype (WT) (Homo sapiens, UniProt P00533); assay: Biochemical EGFR kinase inhibition assay (Lance Ultra TR-FRET), wildtype
Summary of the method: as §1

[6] = ATP at Km, read-out: IC50 Del19/C797S (nM), Km ATP
[7] = IC50 Del19/C797S (nM), 100 μM ATP
[8] = ATP at Km, read-out: IC50 Del19/T790M/C797S (nM), Km ATP
[9] = IC50 Del19/T790M/C797S (nM), 100 μM ATP
[10] = ATP at Km, read-out: IC50 L858R/C797S (nM), Km ATP
[11] = IC50 L858R/C797S (nM), 100 μM ATP
[12] = ATP at Km, read-out: IC50 L858R/T790M/C797S (nM), Km ATP
[13] = IC50 L858R/T790M/C797S (nM), 100 μM ATP
[14] = ATP at Km, read-out: IC50 WT (nM), Km ATP
[15] = Km ATP, read-out: IC50 Del19/C797S (nM) Km ATP
[16] = Km ATP, read-out: IC50 Del19/T790M/C797S (nM) Km ATP
[17] = Km ATP, read-out: IC50 L858R/C797S (nM) Km ATP
[18] = Km ATP, read-out: IC50 L858R/T790M/C797S (nM) Km ATP
[19] = Km ATP, read-out: IC50 WT (nM) Km ATP
[20] = Km ATP, read-out: IC50 Del19/C797S (nM), Km ATP
[21] = Km ATP, read-out: IC50 Del19/T790M/C797S (nM), Km ATP
[22] = Km ATP, read-out: IC50 L858R/C797S (nM), Km ATP
[23] = Km ATP, read-out: IC50 L858R/T790M/C797S (nM), Km ATP
[24] = Km ATP, read-out: IC50 WT (nM), Km ATP

IC50 [1, 6] [nM] | IC50 [1, 7] [nM] | IC50 [2, 8] [nM] | IC50 [2, 9] [nM] | IC50 [3, 10] [nM] | IC50 [3, 11] [nM] | IC50 [4, 12] [nM] | IC50 [4, 13] [nM] | IC50 [5, 14] [nM] | IC50 ([5]; IC50 WT (nM), 100 μM ATP) [nM] | Molecule | also measured
0.3 | 0.5 | 0.5 | 0.3 | 0.6 | 6.3 | 0.4 | 0.6 | 3.5 | > 10000 | CC1(O)CCN(c2cc(Nc3ccnc(-c4cnn(S(=O)(=O)C5CC5)c4)n3)ncc2C#Cc2cccnc2)CC1 [Example 280, 1-(2-((2-(1-(Cyclopropylsulfonyl)-1H-pyrazol-4-yl)pyrimidin-4-yl)amino)-5-(pyridin-3-ylethynyl)pyridin-4-yl)-4-methylpiperidin-4-ol] | –
– | 0.5 | – | 0.2 | – | 1.5 | – | 0.1 | – | 348 | CNCC1(C)CCN(c2cc(Nc3ccnc(-c4cnn(S(=O)(=O)C5CC5)c4)n3)ncc2C#Cc2cnn(C)c2)CC1 [Example 146, 2-(1-(Cyclopropylsulfonyl)-1H-pyrazol-4-yl)-N-(5-((1-methyl-1H-pyrazol-4-yl)ethynyl)-4-(4-methyl-4-((methylamino)methyl)piperidin-1-yl)pyridin-2-yl)pyrimidin-4-amine] | IC50 [1, 15]: 0.2 nM; IC50 [2, 16]: 0.1 nM; IC50 [3, 17]: 0.3 nM; IC50 [4, 18]: 0.04 nM; IC50 [5, 19]: 0.8 nM
20.8 | 34.3 | 0.6 | 0.6 | 19.4 | 309 | 0.5 | 1.9 | 90.6 | > 10000 | Cn1cc(C#Cc2cnc(Nc3ccnc(-c4cnn(S(=O)(=O)C5CC5)c4)n3)cc2N2CC3(CCNCC3)C2)cn1 [Example 155, 2-(1-(Cyclopropylsulfonyl)-1H-pyrazol-4-yl)-N-(5-((1-methyl-1H-pyrazol-4-yl)ethynyl)-4-(2,7-diazaspiro[3.5]nonan-2-yl)pyridin-2-yl)pyrimidin-4-amine] | –
0.5 | 1.2 | 0.6 | 0.5 | 1.2 | 36 | 0.3 | 0.5 | 5.3 | 3400 | CC1(CO)CCN(c2cc(Nc3ccnc(-c4cnn(S(=O)(=O)C5CC5)c4)n3)ncc2C#Cc2ccccn2)CC1 [Example 259, (1-(2-((2-(1-(Cyclopropylsulfonyl)-1H-pyrazol-4-yl)pyrimidin-4-yl)amino)-5-(pyridin-2-ylethynyl)pyridin-4-yl)-4-methylpiperidin-4-yl)methanol] | –
35.9 | 39.9 | 8.5 | 7.9 | 100 | 2080 | 4.3 | 15.9 | 235 | > 10000 | CC1(CO)CCN(c2cc(Nc3ccnc(-c4cnn(S(=O)(=O)C5CC5)c4)n3)ncc2C#CC2CCCCC2)CC1 [Example 252, (1-(5-(Cyclohexylethynyl)-2-((2-(1-(cyclopropylsulfonyl)-1H-pyrazol-4-yl)pyrimidin-4-yl)amino)pyridin-4-yl)-4-methylpiperidin-4-yl)methanol] | –
– | 2.6 | – | 1.2 | – | 12.7 | – | 1.4 | – | 2310 | O=S(=O)(C1CC1)n1cc(-c2nccc(Nc3cc(N[C@H]4CCC[C@H](O)C4)c(C#Cc4cnn(CCF)c4)cn3)n2)cn1 [Example 44, (1S,3S)-3-((2-((2-(1-(Cyclopropylsulfonyl)-1H-pyrazol-4-yl)pyrimidin-4-yl)amino)-5-((1-(2-fluoroethyl)-1H-pyrazol-4-yl)ethynyl)pyridin-4-yl)amino)cyclohexan-1-ol] | –
– | 7.9 | – | 0.6 | – | 50 | – | 1.2 | – | > 10000 | O=S(=O)(C1CC1)N1CCC(C#Cc2cnc(Nc3ccnc(-c4cnn(S(=O)(=O)C5CC5)c4)n3)cc2NC2CCC(CO)CC2)C1 (stereo not shown) [Example 393, ((1s,4s)-4-((2-((2-(1-(Cyclopropylsulfonyl)-1H-pyrazol-4-yl)pyrimidin-4-yl)amino)-5-((1-(cyclopropylsulfonyl)pyrrolidin-3-yl)ethynyl)pyridin-4-yl)amino)cyclohexyl)methanol] | IC50 [1, 20]: 7.3 nM; IC50 [2, 21]: 0.5 nM; IC50 [3, 22]: 3.4 nM; IC50 [4, 23]: 0.4 nM; IC50 [5, 24]: 21.3 nM
– | – | – | – | – | – | – | – | – | – | CN(C)Cc1ccc(CNc2cc(Nc3ccnc(-c4cnn(S(=O)(=O)C5CC5)c4)n3)ncc2C#Cc2cnn(C)c2)cc1 [Example 50, N^2-(2-(1-(Cyclopropylsulfonyl)-1H-pyrazol-4-yl)pyrimidin-4-yl)-N^4-(4-((dimethylamino)methyl)benzyl)-5-((1-methyl-1H-pyrazol-4-yl)ethynyl)pyridine-2,4-diamine] | IC50 [1, 15]: 128 nM; IC50 [2, 16]: 0.9 nM; IC50 [3, 17]: 130 nM; IC50 [4, 18]: 4.5 nM; IC50 [5, 19]: 362 nM
11 | 10.8 | 0.5 | 0.9 | 30.5 | 283 | 1.2 | 2.1 | 150 | > 10000 | O=S(=O)(C1CC1)n1cc(-c2nccc(Nc3cc(N[C@H]4CC[C@@H](O)CC4)c(C#CC4(O)CCCCC4)cn3)n2)cn1 [Example 174, 1-((6-((2-(1-(Cyclopropylsulfonyl)-1H-pyrazol-4-yl)pyrimidin-4-yl)amino)-4-(((1 s, 4s)-4-hydroxycyclohexyl)amino)pyridin-3-yl)ethynyl)cyclohexan-1-ol] | –
0.4 | 1.1 | 0.8 | 1 | 0.1 | 1.3 | 0.4 | 0.6 | 2.5 | 1250 | CC1(CO)CCN(c2cc(Nc3ccnc(-c4cnn(S(=O)(=O)C5CC5)c4)n3)ncc2C#CCCN2CCOCC2)CC1 [Example 285, (1-(2-((2-(1-(Cyclopropylsulfonyl)-1H-pyrazol-4-yl)pyrimidin-4-yl)amino)-5-(4-morpholinobut-1-yn-1-yl)pyridin-4-yl)-4-methylpiperidin-4-yl)methanol] | –
– | 9.7 | – | 0.5 | – | 61.5 | – | 1.3 | – | > 10000 | O=S(=O)(C1CC1)n1cc(-c2nccc(Nc3cc(N4CCC[C@@H](O)C4)c(C#Cc4cnn(CCF)c4)cn3)n2)cn1 [Example 440, (R)-1-(2-((2-(1-(Cyclopropylsulfonyl)-1H-pyrazol-4-yl)pyrimidin-4-yl)amino)-5-((1-(2-fluoroethyl)-1H-pyrazol-4-yl)ethynyl)pyridin-4-yl)piperidin-3-ol] | IC50 [1, 20]: 7.6 nM; IC50 [2, 21]: 0.5 nM; IC50 [3, 22]: 10.3 nM; IC50 [4, 23]: 0.5 nM; IC50 [5, 24]: 48.4 nM

Molecule | IC50 [1, 6] [nM] | IC50 [1, 7] [nM] | IC50 [2, 8] [nM] | IC50 [2, 9] [nM] | IC50 [3, 10] [nM] | IC50 [3, 11] [nM] | IC50 [4, 12] [nM] | IC50 [4, 13] [nM] | IC50 [5, 14] [nM] | IC50 ([5]; IC50 WT (nM), 100 μM ATP) [nM] | also measured
(1-(2-((2-(1-(Cyclopropylsulfonyl)-1H-pyrazol-4-yl)pyrimidin-4-yl)amino)-5-((5-((3,3-difluoroazetidin-1-yl)methyl)-1-(2,2-difluoroethyl)-1H-pyrrol-3-yl)ethynyl)pyridin-4-yl)-4-methylpiperidin-4-yl)methanol [Example 248] | 9.9 | – | 8.3 | – | 16.6 | – | – | – | 30.1 | – | IC50 ([1]; read-out: IC50 Del19/C797S (nM), 100 μM ATP): 8.6 nM; IC50 ([2]; read-out: IC50 Del19/T790M/C797S (nM), 100 μM ATP): 13.8 nM; IC50 ([3]; read-out: IC50 L858R/C797S (nM), 100 μM ATP): 39.4 nM; IC50 ([4]; read-out: IC50 L858R/T790M/C797S (nM), 100 μM ATP): 11.4 nM; IC50 ([5]; read-out: IC50 WT (nM), 100 μM ATP): 6600 nM
